Measurements: ChEMBL document CHEMBL1201862, “PubChem BioAssay data set” (2004)
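Values below derive from 48-hour exposures of cells grown in 96-well plates, with endpoints linearly interpolated between the two concentrations bracketing the appropriate inhibition level. The concentration for 50% growth inhibition is given as GI50.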 Activity calls are given as the source filed them. Rule as the data show it: active = GI50 up to about 1.1 µM and inactive = higher.

What was measured:
Assay in all cases: DTP human tumour cell line panel, 48 h
786-0 = tested on: 786-0
PC-3 = tested on: PC-3
COLO 205 = tested on: COLO 205
SF-268 = tested on: SF-268
SF-539 = tested on: SF-539
RXF 393 = tested on: RXF 393
Malme-3M = tested on: Malme-3M
SNB-19 = tested on: SNB-19
CCRF-CEM = tested on: CCRF-CEM
DU-145 = tested on: DU-145
RPMI-8226 = tested on: RPMI-8226
TK-10 = tested on: TK-10
MDA-MB-435 = tested on: MDA-MB-435
SNB-75 = tested on: SNB-75
HL-60 = tested on: HL-60
ACHN = tested on: ACHN
OVCAR-4 = tested on: OVCAR-4
NCI-H23 = tested on: NCI-H23
UO-31 = tested on: UO-31
MDA-N = tested on: MDA-N

Row | SMILES | GI50 (786-0) | GI50 (PC-3) | GI50 (COLO 205) | GI50 (SF-268) | GI50 (SF-539) | GI50 (RXF 393) | GI50 (Malme-3M) | GI50 (SNB-19) | GI50 (CCRF-CEM) | GI50 (DU-145) | GI50 (RPMI-8226) | GI50 (TK-10) | GI50 (MDA-MB-435) | GI50 (SNB-75) | GI50 (HL-60) | GI50 (ACHN) | GI50 (OVCAR-4) | GI50 (NCI-H23) | GI50 (UO-31) | GI50 (MDA-N)
1 | CN(C)CCCc1c2ccccc2nc2ccc(Cl)cc12 | 11.7 µM (inactive) | 16.8 µM (inactive) | 14.9 µM (inactive) | 14.6 µM (inactive) | 16.6 µM (inactive) | 14.1 µM (inactive) | 15.4 µM (inactive) | 12 µM (inactive) | 9.16 µM (inactive) | 21.4 µM (inactive) | 21.3 µM (inactive) | 13.9 µM (inactive) | 13.3 µM (inactive) | 15.5 µM (inactive) | 16 µM (inactive) | 14.9 µM (inactive) | 18.6 µM (inactive) | 30.3 µM (inactive) | – | –
2 | O=C(/C=C/c1ccccc1)/C=C/c1ccccc1 | 30.3 µM (inactive) | – | > 100 µM (inactive) | 28.4 µM (inactive) | 19.5 µM (inactive) | 34.4 µM (inactive) | 21.8 µM (inactive) | – | 36.9 µM (inactive) | – | 39.3 µM (inactive) | 58.2 µM (inactive) | – | 47.6 µM (inactive) | 23.2 µM (inactive) | 18.9 µM (inactive) | 22.1 µM (inactive) | 29.7 µM (inactive) | 43.5 µM (inactive) | –
3 | C[Si](C)(C)OC1CC(=O)OC1n1cc(F)c(=O)[nH]c1=O (stereo not drawn) | 21.4 µM (inactive) | – | 21 µM (inactive) | 50.7 µM (inactive) | 2.58 µM (inactive) | > 43.6 µM (inactive) | 19.2 µM (inactive) | > 55.1 µM (inactive) | 18.2 µM (inactive) | – | 3.14 µM (inactive) | > 100 µM (inactive) | – | 65.9 µM (inactive) | 9.71 µM (inactive) | 11.7 µM (inactive) | > 28.4 µM (inactive) | > 27.8 µM (inactive) | 13 µM (inactive) | –
4 | O=C(O)CNS(=O)(=O)c1ccc(NC(=O)c2cccc([N+](=O)[O-])c2)cc1 | > 100 µM (inactive) | – | > 100 µM (inactive) | > 100 µM (inactive) | > 100 µM (inactive) | > 100 µM (inactive) | > 100 µM (inactive) | > 100 µM (inactive) | > 100 µM (inactive) | – | > 100 µM (inactive) | > 100 µM (inactive) | – | > 100 µM (inactive) | > 100 µM (inactive) | > 100 µM (inactive) | > 100 µM (inactive) | > 100 µM (inactive) | > 100 µM (inactive) | –
5 | ClCCCc1ccccc1C1=NCCc2ccccc21 | > 100 µM (inactive) | 36.5 µM (inactive) | 22 µM (inactive) | 49.7 µM (inactive) | > 100 µM (inactive) | > 100 µM (inactive) | – | 36.8 µM (inactive) | > 100 µM (inactive) | > 100 µM (inactive) | 3.21 µM (inactive) | > 100 µM (inactive) | 37.5 µM (inactive) | 17.5 µM (inactive) | 23.5 µM (inactive) | > 100 µM (inactive) | 51.5 µM (inactive) | 15.8 µM (inactive) | > 100 µM (inactive) | –
6 | CSc1nc(C)cc(Nc2ccc(O)c(CN3CCCCC3)c2)n1 | 23.1 µM (inactive) | – | 29 µM (inactive) | > 100 µM (inactive) | 43.3 µM (inactive) | 67.6 µM (inactive) | 48.6 µM (inactive) | > 100 µM (inactive) | – | 64.3 µM (inactive) | 23.3 µM (inactive) | – | 57.5 µM (inactive) | > 100 µM (inactive) | – | 83 µM (inactive) | > 100 µM (inactive) | 77.4 µM (inactive) | 48.1 µM (inactive) | 28 µM (inactive)
7 | Nc1nc(N)c2nc(CNc3ccc(C(=O)NC(CCNC(=O)c4ccccc4C(=O)O)C(=O)O)cc3)cnc2n1 (stereo not drawn) | 0.01 µM (active) | 0.01 µM (active) | – | 0.0101 µM (active) | < 0.0256 µM (active) | – | > 36.2 µM (inactive) | < 0.0434 µM (active) | 0.01 µM (active) | 0.0339 µM (active) | 0.083 µM (active) | > 100 µM (inactive) | 0.01 µM (active) | – | – | 0.01 µM (active) | > 100 µM (inactive) | < 0.0226 µM (active) | 0.00802 µM (active) | 0.00785 µM (active)
8 | CNC(=O)N1CN(c2ccccc2)C2(CCN(Cc3ccccc3)CC2)C1=O | > 100 µM (inactive) | 93.1 µM (inactive) | 35.6 µM (inactive) | > 100 µM (inactive) | 34.7 µM (inactive) | > 100 µM (inactive) | 70.1 µM (inactive) | > 100 µM (inactive) | 53.5 µM (inactive) | > 100 µM (inactive) | 43.4 µM (inactive) | 62.5 µM (inactive) | – | > 100 µM (inactive) | 43.1 µM (inactive) | > 100 µM (inactive) | – | > 100 µM (inactive) | 11.3 µM (inactive) | 29.2 µM (inactive)
9 | C=C(CCCCC)CN1CCCC1[C@@](C)(O)CC(=O)OCC (stereo partly drawn) | > 100 µM (inactive) | – | > 100 µM (inactive) | > 100 µM (inactive) | > 100 µM (inactive) | > 100 µM (inactive) | > 100 µM (inactive) | > 100 µM (inactive) | > 100 µM (inactive) | – | > 100 µM (inactive) | > 100 µM (inactive) | – | > 100 µM (inactive) | 28.6 µM (inactive) | > 100 µM (inactive) | > 100 µM (inactive) | > 100 µM (inactive) | > 100 µM (inactive) | –
10 | CC(=O)NCCSC(=O)c1ccccc1 | 0.0506 µM (active) | 0.525 µM (active) | 0.158 µM (active) | 0.0977 µM (active) | 0.387 µM (active) | 0.112 µM (active) | 0.119 µM (active) | 0.916 µM (active) | < 0.0153 µM (active) | 0.199 µM (active) | 0.131 µM (active) | 0.126 µM (active) | 0.18 µM (active) | 0.741 µM (active) | – | < 0.0195 µM (active) | 1.38 µM (inactive) | 0.0559 µM (active) | 0.264 µM (active) | –
11 | CCOC(CCCN1CCC2(CC1)C(=O)N(C)CN2c1ccccc1)(OCC)c1ccc(F)cc1 | 14.6 µM (inactive) | 15.7 µM (inactive) | 2.52 µM (inactive) | 12.9 µM (inactive) | 3.77 µM (inactive) | 19.2 µM (inactive) | 16.2 µM (inactive) | 10.2 µM (inactive) | 4.42 µM (inactive) | 6.87 µM (inactive) | 10.5 µM (inactive) | 7.66 µM (inactive) | – | 19.4 µM (inactive) | 13 µM (inactive) | 5.16 µM (inactive) | – | 16.6 µM (inactive) | 7.01 µM (inactive) | 11.6 µM (inactive)
12 | O=C1CCCC2=C1CC1=C(CCCC1=O)N2c1ccccc1 | > 100 µM (inactive) | > 100 µM (inactive) | – | > 100 µM (inactive) | > 100 µM (inactive) | 40.7 µM (inactive) | – | > 100 µM (inactive) | > 100 µM (inactive) | – | > 100 µM (inactive) | > 100 µM (inactive) | – | > 100 µM (inactive) | > 100 µM (inactive) | > 100 µM (inactive) | > 100 µM (inactive) | > 100 µM (inactive) | > 100 µM (inactive) | –
13 | COC(=O)c1cc(C)ccc1C1CN=NC12Cc1cccc(C)c1C2=O (stereo not drawn) | 56.6 µM (inactive) | – | – | 49.7 µM (inactive) | 51.6 µM (inactive) | 25 µM (inactive) | 24.2 µM (inactive) | 55.1 µM (inactive) | 29.3 µM (inactive) | 42.5 µM (inactive) | 16.8 µM (inactive) | 71.6 µM (inactive) | 26.3 µM (inactive) | 77.3 µM (inactive) | 12.7 µM (inactive) | 28.2 µM (inactive) | 25.5 µM (inactive) | 42.7 µM (inactive) | 38.9 µM (inactive) | 34.8 µM (inactive)
14 | NS(=O)(=O)c1ccc(NC(=O)c2cccc3c(Nc4ccc(S(N)(=O)=O)cc4)c4ccccc4nc23)cc1 | 25.3 µM (inactive) | – | 54.5 µM (inactive) | 15.5 µM (inactive) | 20.8 µM (inactive) | 52.5 µM (inactive) | 43.9 µM (inactive) | 30.8 µM (inactive) | 6.18 µM (inactive) | – | 9.25 µM (inactive) | > 100 µM (inactive) | – | 14.3 µM (inactive) | 28.6 µM (inactive) | > 100 µM (inactive) | 22.4 µM (inactive) | 87.5 µM (inactive) | 93.5 µM (inactive) | –
15 | C=CCOC(=O)C[C@H](NC(=O)[C@H](Cc1ccc(O)cc1)NCC(F)(F)F)C(=O)OCC=C | > 100 µM (inactive) | 77.8 µM (inactive) | 31.8 µM (inactive) | 37.7 µM (inactive) | 57.8 µM (inactive) | > 100 µM (inactive) | 22.6 µM (inactive) | > 100 µM (inactive) | – | – | 36.1 µM (inactive) | > 100 µM (inactive) | 41.3 µM (inactive) | 31.6 µM (inactive) | – | > 100 µM (inactive) | > 100 µM (inactive) | 37.5 µM (inactive) | > 100 µM (inactive) | 35.3 µM (inactive)
16 | C/C1=C\[C@H](C)C[C@H](C)OC(=O)C[C@H](c2ccc(O)cc2)NC(=O)[C@H](Cc2ccc(O)c(I)c2)N(C)C(=O)[C@H](C)NC(=O)[C@@H](C)C1 | 0.0148 µM (active) | 0.0608 µM (active) | 0.0161 µM (active) | 0.011 µM (active) | – | – | 0.0118 µM (active) | 0.0143 µM (active) | 0.00497 µM (active) | 0.0183 µM (active) | 0.0108 µM (active) | 0.0586 µM (active) | 0.0442 µM (active) | 0.0354 µM (active) | – | 0.00832 µM (active) | 0.00653 µM (active) | 2.79 µM (inactive) | 0.0535 µM (active) | 0.0412 µM (active)
